The assay concerns the target T1, human TRPV3 (Homo sapiens, UniProt Q8NET8).
T1 sequence (Q8NET8 1-790): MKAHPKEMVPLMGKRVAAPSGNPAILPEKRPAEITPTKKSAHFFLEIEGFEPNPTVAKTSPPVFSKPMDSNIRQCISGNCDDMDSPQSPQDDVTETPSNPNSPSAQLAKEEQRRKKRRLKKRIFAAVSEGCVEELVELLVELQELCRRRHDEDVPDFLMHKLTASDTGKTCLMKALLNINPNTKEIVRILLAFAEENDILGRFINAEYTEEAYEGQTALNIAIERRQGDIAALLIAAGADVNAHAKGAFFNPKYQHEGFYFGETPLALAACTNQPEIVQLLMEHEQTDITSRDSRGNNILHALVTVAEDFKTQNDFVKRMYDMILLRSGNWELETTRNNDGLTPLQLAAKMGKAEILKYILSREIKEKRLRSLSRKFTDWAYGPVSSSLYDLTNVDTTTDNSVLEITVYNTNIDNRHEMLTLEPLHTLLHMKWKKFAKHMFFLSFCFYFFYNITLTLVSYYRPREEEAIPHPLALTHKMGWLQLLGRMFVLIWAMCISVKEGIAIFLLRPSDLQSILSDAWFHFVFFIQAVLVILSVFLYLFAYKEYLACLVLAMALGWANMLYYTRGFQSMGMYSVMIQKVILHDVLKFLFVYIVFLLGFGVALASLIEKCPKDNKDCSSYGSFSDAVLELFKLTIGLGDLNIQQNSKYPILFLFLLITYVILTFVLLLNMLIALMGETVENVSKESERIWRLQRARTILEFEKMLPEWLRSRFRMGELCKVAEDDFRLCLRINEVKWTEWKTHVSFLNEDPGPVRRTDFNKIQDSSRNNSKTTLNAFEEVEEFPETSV
In words: Inside-out single channel recordings of TRPV3. It is filed as biochemical.

Setting [1] is: +80 mV, carvacrol 300 μM or 2-APB 50 μM alone.

In the case of `Cc1ccc(C(C)C)cc1O` [carvacrol, 5-Isopropyl-2-methylphenol], under setting [1], the “single-channel open frequency (Freq)” value was determined as 59.21 ± 11.32 Hz and the “single-channel open probability (Po)” value came out at 0.72 ± 0.05. Moreover, the “unitary conductance of TRPV3 single channels” value (inside-out patches, -80 mV to +80 mV, carvacrol 300 μM, 2-APB 50 μM, n = 4) was determined as 182.0 ± 6.4 pS.

The values above are taken from article PMC8920929 (The Journal of Biological Chemistry, 2022).
